Experimental data as given in patent US20240124424A1, “SOLID FORMS OF (5S)-CYCLOPROPYL-5-[3-[(3S)-4-(3,5-DIFLUOROPHENYL)-3-METHYL-PIPERAZIN-1-YL]-3-OXO-PROPYL]IMIDAZOLIDINE-2,4-DIONE” (Galapagos NV, priority 2020, published 2024).
Values joined by “and” are separate entries in the source; they are usually repeats but may differ in a detail not shown here. Identical values can stand only once.

Columns and labels:
[1] = Stability study of the solid forms; type: physicochemical; details: for Stability of solid forms under different conditions: result in words
Balb/c mice = experiment: Protein overload nephrectomy model; type: in vivo; details: day 14, individual mice, Cpd 1 240 mg/kg/day b.i.d. or lisinopril 10 mg/kg/day, oral gavage; for proteinuria / urine creatinine: 24 h urine; for Protein/creatinine: urine ratio
Procedure: This animal model allows to assess the efficacy of the compound of the invention in renal disease, including renal fibrosis.
This study was undertaken in Balb/c mice (Charles River).
Mice underwent a left unilateral nephrectomy via a short flank incision under anaesthesia.
Sham control mice received an incision only . The mice were allowed to recover from surgery for 7 days.
Drug treatment commenced one day prior to initiation of protein overload.
Each mouse received either Cpd 1 240 mg/kg/day b.i.d. (dosed daily at 8h00 and 15h30), or 10 mg/kg/day Lisinopril (one dose Lisinopril plus one dose of vehicle), or vehicle alone (0.5% methyl cellulose containing 2% Tween 80—two doses) by oral gavage.
Sham mice received vehicle alone. Protein overload was initiated by daily intraperitoneal injections of sterile filtered 450 mg/ml BSA solution in saline (Sigma cat A4919: low endotoxin) starting from 2 mg/g body weight on day one and increasing to 15 mg/g on day 7 until day 14 according to schedule below:
Sham mice received equivalent volumes of saline. After the last injection, mice were housed in metabolic cages for 24 h urine collection.
The mice were then anaesthetized before sacrifice. Blood sample was collected. The remaining right kidneys were perfused with PBS (Sigma 806552)+10 mM EDTA (Invitrogen 15575-02—stock 0.5M) after which they were excised and transverse dissected.
All data were expressed as means±SEM. Results were analysed using GraphPad Prism 8. D'Agostino-Pearson omnibus normality tests were performed to assess normality for data sets >8, while a Shapiro-Wilk test was applied to data sets <8. For multiple comparisons, a one-way ANOVA with Tukey's post hoc correction (parametric) or a Kruskal-Wallis test with Dunn's post hoc test (non-parametric data) were used. ELISA standard curves were plotted using a Sigmoidal4PL fit where x was the log of the standard concentration. Relative mRNA expression levels were calculated according to the Livak equation as 2-ΔCt. A confidence interval of 0.95, p≤0.05, was applied for all statistical tests.
The following endpoints were measured: • Urine Protein concentration mg/mL, • Urine protein/mg creatinine (mg/mg) • serum protein concentration (mg/mL), • urine creatinine concentration (mg/dL)(mg/mL) • Serum creatinine concentration (mg/dL) • Serum urea concentration (mg/dL) • Versikine, NITEGE, ARGS dot blots • Immunohistochemistry: ADAMTS5, Collagen I, Collagen IV, fibronectin, CD45, complement C3, F4/80

mdx mice = experiment: Duchenne muscular dystrophy mdx model; type: in vivo; set-up: Average force output (grip strength) / Tissue volume / Bone volume: unit not given here; details: mean, Cpd 1 120 mg/kg p.o. b.i.d., prednisolone 5 mg/kg p.o. qd; for Av. g/g BW (average force output/g of body weight) / Average force output (grip strength): n = 15
Source text: The male mdx mice is the most used animal model for pre-clinical Duchenne muscular dystrophy (DMD) research.
Five-week-old mdx mice (Animal Resource Centre; Perth, WA, Australia) were allowed to acclimatise for 1 week to their surroundings, before being randomly allocated to one of four treatment groups or an untreated control group (15 animals per group) as described in the table below. At the start of the study, these groups were matched for mouse body weight.
The untreated control mdx mice were restrained throughout the study. Following 1-week acclimatisation, this group of mice also have baseline measurements of grip strength and body composition taken, which were repeated at ˜10 weeks and ˜15 weeks of age. Furthermore, these mice were weighed on a regular basis and their urine was collected at ˜6, ˜10 and ˜15 weeks of age. […]
Bone structure was evaluated via μCT analysis of cortical and trabecular bone on the femur.

BALB/c (H2^d) mice = experiment: Graft versus host (cGvHD) lung model; type: in vivo; details: 120 mg/kg p.o. b.i.d., statistically significant
Source text: In this cGvHD model, fibrosis was induced in BALB/c (H2^d) mice by allogeneic transplantation of bone marrow cells and splenocytes from B10.D2 (H2^d) donor mice (minor HLA mismatch). The recipient mice develop inflammation-driven dermal and pulmonary fibrosis resembling patients with rapidly progressive diffuse cutaneous systemic sclerosis (Zen et al., 2012).
The treatment was provided only after the onset of first clinical symptoms of sclerodermatous cGvHD.
The following groups with each eight mice were used in this study • Syngeneically transplanted, placebo-treated control group: Syngeneic bone marrow and splenocyte transplantation (BALB/c (H2^d)→BALB/c (H2^d)). Application of methyl cellulose 0.5% from day 21 to day 56 post transplantation. • Vehicle-treated fibrosis group: Allogeneic bone marrow and splenocyte transplantation (B10.D2 (H2^d)→BALB/c (H2^d)). Application of methyl cellulose 0.5% from day 21 to day 56 post transplantation • Control group to assess pretreatment levels of fibrosis induced by allogeneic transplantation: Allogeneic bone marrow and splenocyte transplantation (B10.D2 (H2^d)→BALB/c (H2^d)). Sacrifice at day 21, before treatment was initiated in the other groups. • Treatment group: Allogeneic bone marrow and splenocyte transplantation (B10.D2 (H2^d)→BALB/c (H2^d)). Application of a test compound of the invention from day 21 to day 56 post transplantation. • Positive control group: Allogeneic bone marrow and splenocyte transplantation (B10.D2 (H2^d)→BALB/c (H2^d)). Application of 50 mg/kg qd nintedanib from day 21 to day 56 post transplantation.
Animals were sacrificed 2 h post last dose, and samples of skin (3 mm punch biopsies), lung, spleen and blood were collected for histology and gene expression analysis.
The anti-fibrotic effects on skin were analysed by determination of dermal thickness, quantification of lesional collagen and staining for myofibroblasts.
In case of positive effects on skin fibrosis, effects on pulmonary fibrosis were analysed by Ashcroft scoring, hydroxyproline content, and quantification of the collagen covered area using Sirius red staining
Based on individual animal raw data, the means for each group were determined and percent change from disease controls was calculated. Treatment groups were compared to disease controls using a one-way analysis of variance (1-way ANOVA) with a Dunnett's post-hoc analysis for measured (parametric) data or a Kruskal-Wallis test with a Dunn's post-hoc analysis for scored (non-parametric) data.

[2] = PK study in human, tablets of Form I and Form II; type: in vivo; details: fasted, 300 mg oral
Procedure: Following a single 300 mg oral administration of Cpd 1 under fasted and/or fed conditions to healthy male subjects (18 subjects per group) as 30% or 50% drug load tablets of crystalline form I and crystalline form II, concentrations of Cpd 1 human plasma concentrations were determined using protein precipitation extraction with liquid chromatography with tandem mass spectrometry (LC-MS/MS) detection.
The lower limit of quantification was 1 ng/mL. In each analytical run, duplicate QC samples were analyzed along with the study samples.
Blood samples (2 mL) for determination of Cpd 1 in plasma were collected at various time points into tubes containing lithium heparin and were immediately chilled (ice bath). Within 30 min after blood collection, the plasma was separated in a refrigerated centrifuge at 4° C. for 10 min at circa 1,500 g.
Predose PK samples were collected within 15 min predose then at the following time points: 0.5 h, 1 h, 1.5 h, 2 h, 2.5 h, 3 h, 4 h, 5 h, 6 h, 8 h, 12 h, 16 h, 24 h, 48 h, 72 h. For all PK samples between 0.5 and 16 h, a window of ±5 min was allowed; for 24- to 72-h samples, a window of ±30 min was allowed.
All statistical analyses were performed using SAS® version 9.4 (or higher) (SAS Institute, Cary, NC, USA) and/or Phoenix WinNonLin (version 8 or higher) software.
All relevant data were documented using summary tables, figures, and subject data listings. […]

[3] = storage 25° C./60% RH - 12 months
[4] = storage 40° C./75% RH - 6 months

SMILES | Stability of solid forms under different conditions [1] | Stability [1, 3] | Stability [1, 4] | proteinuria (Balb/c mice) | urine creatinine (Balb/c mice) | serum creatinine (Balb/c mice) | Protein/creatinine (Balb/c mice) | BV/TV (bone volume fraction) (mdx mice; after treatment) | Bone volume (mdx mice; after treatment) | Av. g/g BW (average force output/g of body weight) (mdx mice; mid treatment (4 weeks)) | Average force output (grip strength) (mdx mice; mid treatment (4 weeks)) | Av. g/g BW (average force output/g of body weight) (mdx mice; post treatment (9 weeks)) | Average force output (grip strength) (mdx mice; post treatment (9 weeks)) | Av. g/g BW (average force output/g of body weight) (mdx mice; pre-treatment) | Average force output (grip strength) (mdx mice; pre-treatment) | further results
C[C@H]1CN(C(=O)CC[C@@]2(C3CC3)NC(=O)NC2=O)CCN1c1cc(F)cc(F)c1 [Amorphous, (5S)-cyclopropyl-5-[3-[(3S)-4-(3,5-difluorophenyl)-3-methyl-piperazin-1-yl]-3-oxo-propyl]imidazolidine-2,4-dione] | stable | 100% | 99.3% |  |  |  |  |  |  |  |  |  |  |  |  | 
C[C@H]1CN(C(=O)CC[C@@]2(C3CC3)NC(=O)NC2=O)CCN1c1cc(F)cc(F)c1 [Cpd 1, (5S)-cyclopropyl-5-[3-[(3S)-4-(3,5-difluorophenyl)-3-methyl-piperazin-1-yl]-3-oxo-propyl]imidazolidine-2,4-dione] |  |  |  | 75.2 mg/mL and 54.7 mg/mL and 187 mg/mL and 79.4 mg/mL and 145 mg/mL and 72.4 mg/mL and 143.5 mg/mL and 229.6 mg/mL and 163 mg/mL and 44.4 mg/mL | 0.33 mg/mL and 0.34 mg/mL and 0.38 mg/mL and 0.25 mg/mL (2×) and 0.29 mg/mL and 0.26 mg/mL and 0.297 mg/mL and 0.384 mg/mL and 0.28 mg/mL | 0.43 mg/dL and 0.4 mg/dL and 0.47 mg/dL and 0.44 mg/dL and 0.41 mg/dL and 0.46 mg/dL and 0.39 mg/dL and 0.38 mg/dL and 0.3 mg/dL and 0.37 mg/dL | 229 and 160 and 497 and 321 and 581 and 250 and 550 and 774 and 425 and 159 | 36.09% | 0.80 | 3.72 g/g | 91.88 | 3.86 g/g | 88.24 | 2.86 g/g | 61.13 | Tissue volume (mdx mice; after treatment): 2.21; reduction of Hydroxyproline content in skin (BALB/c (H2^d) mice): −8.3%; decrease of Ashcroft score compared to the vehicle group (BALB/c (H2^d) mice; lung): −1,3 fold; decrease of collagen-covered lung area compared to the vehicle group (BALB/c (H2^d) mice; lung): −1,2 fold; reduction of myofibroblast count (BALB/c (H2^d) mice; skin): −35%
C[C@H]1CN(C(=O)CC[C@@]2(C3CC3)NC(=O)NC2=O)CCN1c1cc(F)cc(F)c1 [Form I, (5S)-cyclopropyl-5-[3-[(3S)-4-(3,5-difluorophenyl)-3-methyl-piperazin-1-yl]-3-oxo-propyl]imidazolidine-2,4-dione] | stable | 100% | 100% |  |  |  |  |  |  |  |  |  |  |  |  | 
C[C@H]1CN(C(=O)CC[C@@]2(C3CC3)NC(=O)NC2=O)CCN1c1cc(F)cc(F)c1 [Form II, (5S)-cyclopropyl-5-[3-[(3S)-4-(3,5-difluorophenyl)-3-methyl-piperazin-1-yl]-3-oxo-propyl]imidazolidine-2,4-dione] | stable | 99.3% | 98.7% |  |  |  |  |  |  |  |  |  |  |  |  | increase in plasma peak exposure (Cmax) compared to polymorphic form I ([2]; 30% load tablet): 34%; increase in plasma peak exposure (Cmax) compared to polymorphic form I ([2]; 50% load tablet): 40%
NCCCC[C@H](N[C@@H](CCc1ccccc1)C(=O)O)C(=O)N1CCC[C@H]1C(=O)O [lisinopril, reference compound] |  |  |  | 59.1 mg/mL and 128.8 mg/mL and 55.8 mg/mL and 197.6 mg/mL and 71.7 mg/mL and 264.6 mg/mL and 284 mg/mL and 82.1 mg/mL and 80 mg/mL and 79 mg/mL | 0.467 mg/mL and 0.378 mg/mL and 0.32 mg/mL and 0.36 mg/mL and 0.3 mg/mL and 0.34 mg/mL and 0.41 mg/mL and 0.38 mg/mL and 0.22 mg/mL and 0.42 mg/mL | 0.39 mg/dL and 0.41 mg/dL and 0.34 mg/dL and 0.35 mg/dL and 0.25 mg/dL and 0.57 mg/dL (2×) and 0.46 mg/dL and 0.55 mg/dL and 0.54 mg/dL | 127 and 341 and 174 and 552 and 238 and 774 and 700 and 216 and 364 and 188 |  |  |  |  |  |  |  |  | 
C[C@]12C=CC(=O)C=C1CC[C@@H]1[C@@H]2[C@@H](O)C[C@@]2(C)[C@H]1CC[C@]2(O)C(=O)CO [prednisolone, reference compound] |  |  |  |  |  |  |  | 29.84% | 0.70 | 3.44 g/g | 84.86 | 2.93 g/g | 78.84 | 2.83 g/g | 60.55 | 
